Source: US9072750B2, “Use of prostaglandins F2Alpha and analogues for the healing of corneal and conjunctival lesions” (priority 2009, dated 2015)

Tests used:
Sprague-Dawley rats = test: Corneal scraping (deshepithelization) wound healing model in the rat, repeated instillations; type: in vivo
Experimental: Brief description of the protocol: 16 male Sprague-Dawley rats weighting 100 to 125 g were randomly assigned to 4 groups (4 rats per group (Gp)): Gp1, Phosphate buffer solution (PBS); Gp2, 0.02% benzalkonium chloride (BAK); Gp3, Xalatan®; Gp4, Latanoprost Emulsion. Following general and local anesthesia with ketamine/xylazine and topical Oxybucaïne, respectively, the upper part of the right eye cornea of each rat was scraped with a surgical scalpel following an application of 50 μl of 50% ethanol solution. The upper corneal and limbal epithelia were removed (at day D0). One drop of Tobrex was instilled immediately after the scraping. 2 and 5 hours post scraping one drop of the different test articles were applied onto the cornea of the right eye. These latter instillations were repeated every day for 4 days, and corneal evaluation with an in vivo confocal microscope (IVCM-HRT) was performed on day 4 after the last instillation. At the end of the experimental procedure (the total duration of the treatment is 5 days; from day D0 to D4), the animals were sacrificed and the eyes harvested to characterize the histological organisation of the treated cornea.

[1] = system: human corneal epithelial (HCE) cells; test: Scraping wound closure assay on human corneal epithelial cell monolayer; type: cell-based; details: 24 h post scraping
Experimental: Brief description of the protocol: human corneal epithelial (HCE) cells (100 000 cells per well) were plated in 6-well plates and cultured until confluence. At confluence the cell monolayer was scraped with a yellow tip, the medium removed and incubated for 30 min with 1/10 dilutions of the different test articles (PBS (phosphate buffer solution), Xalatan® (aqueous solution of latanoprost at 0.005%), 0.02% BAK (benzalkonium chloride aqueous solution), and the Latanoprost Emulsion of the invention (with 0.005% latanoprost). Following the treatment, test article dilutions were removed and replaced by fresh culture medium. The scraping closure was assessed 2 and 24 h post treatment. Immunohistology of proliferation marker (Ki67) was also performed on cells cultured for 24 h post scraping.

In the case of “benzalkonium chloride [0.02% BAK solution]”, the “corneal opacity / scarification of the cornea” value (Sprague-Dawley rats; day 4 after scraping, repeated instillations, right eye (FIG. 1)) is reported as “scarification of the cornea was dramatic”, the “in vivo confocal microscopy (IVCM) of superficial epithelium: scar tissue / hypereflectivity” value (Sprague-Dawley rats; rat, in vivo) is reported as “scar tissue (hypereflectivity)” and the “closure of the cleft (scraping closure), cell survival and migration” value ([1]; 1/10 dilutions (FIGS. 7 & 8)) is reported as “no or only little closure”. The “% of wound closure” value ([1]; 30 min incubation with 1/10 dilutions (FIG. 9)) was 8%.
